The subject of one data set is M fort B. The experiment in a line: MIC assay, broth microdilution with resazurin. Format: cell-based. The settings on record: for MIC: read-out: MIC M fort B. How it is done: (§1) The protocol used is based upon that detailed by the CLSI (Clinical and Laboratory Standards Institute (CLSI) 2006. Methods for Dilution Antimicrobial Susceptibility Tests for Bacteria that Grow Aerobically; Approved Standard. 7th edn. Document M7-A6. Clinical and Laboratory Standards Institute, Wayne, PA.).
(§2) The compounds are dissolved in DSMO in a concentration of 1 mg/ml and further diluted in water to achieve the final concentration, which is used as the highest concentration for determination of MIC. This highest concentration is filled in the first row of the microtiter plate and further diluted in the culture medium for the mycobacteria (Mueller-Hinton Broth and Middlebrook 7H9 broth). All solutions are freshly prepared under sterile conditions.
(§3) Ciprofloxacin, Isoniazid and Rifampicin can be used as reference compounds for control of the assay as well as a solvent control.
(§4) Minimal inhibitory concentrations (MIC) are determined according to the CLSI guidelines using the broth microdilution method. 50 µl of the compound solution are serially diluted directly in the microtiter plate by factor two with MHB or 7H9 media. Then the wells are inocalated with 50 µl of test organisms in MHB/7H9 to give a final concentration of 5x10^5 CFU/ml. After that the microtiter plates are incubated at 37°C for 48 h. Then 30 µl of resazurin solution is added to each well and plates are allowed to incubate at 37°C for additional 24 hrs. A change from blue to pink colour indicates reduction of resazurin and therefore bacterial growth. The MIC is defined as the lowest drug concentration that prevents this colour change.
(§5) Resazurin salt powder (Sigma) is prepared at 0.01 % (wt/vol) in distilled water, sterilized by filtration through a 0.22 µm membrane and stored at 4°C for a week.

Another data set deals with M smeg 5G987. The experiment in a line: MIC assay, broth microdilution with resazurin. Format: cell-based, Mycobacterium smegmatis. The settings on record: for MIC: Mycolicibacterium smegmatis. As for the experimental part:
as §1, §2, §3, §4, §5
Background: In broth dilution the organism is exposed to a series of concentrations in liquid medium.

The subject of the next data set is mycobacteria. The note with it: comparison values, strain not named; cited from earlier work.
In a further data set the test system is M vaccae 10670. The experiment in a line: MIC assay, broth microdilution with resazurin. Format: cell-based. How it is done:
as §1, §2, §3, §4, §5

The test system of a further data set is M aurum SB66. Nature of the data set: MIC assay, broth microdilution with resazurin. Type of data set: cell-based. The settings on record: for activity against M. aureum strain SB66: strain resistant against agents that target decaprenylphosporyl-β-D-ribose 2'-epimerase. How it is done: as §1, §2, §3, §4, §5
The test system of data set [1] is Mycobacterium smegmatis, ATCC 700084. The experiment in a line: MIC assay, broth microdilution with resazurin. The settings on record: Mycolicibacterium smegmatis, ATCC700084; head carries superscript IMB; read-out: MIC M smeg 700084. Format: cell-based. How it is done: as §1, §2, §3, §4, §5
The test system of a further data set is HEK293. The experiment in a line: Cytotoxicity assay (MTT). Type of data set: cell-based. The note with it: 24 hours, read-out: CytoTox HEK293 (CC50). How it is done:
(§6) Test cells (see Table below for details) are seeded as 1x10^4 cells per well in a clear 96 well plate in a final volume of 100 µl in media. Cells are incubated for 24 hours at 37°C, 5% CO2 to allow cells to attach to the plates.
(§7) The compounds of the present invention are added in triplicate in a range of concentrations. For compound A e.g., the concentration started from 100µM,...and then 2-fold diluted to 0.78µM. Colistin and Tamoxifen were applied as controls.
(§8) The cells are incubated for 24 hours at 37°C, 5% CO2. MTT (3-(4,5-Dimethylthiazol-2-yl)-2,5-diphenyltetrazolium bromide) (Sigma) (dissolved in PBS) is added to each well to a final concentration of 0.4 mg/mL. The plate is then incubated for 1 hours at 37°C, 5% CO2. Media is removed, and crystals are resuspended in 60 µl of DMSO. Shaking the plate at room temperature for 10 minutes dissolves the formazan crystals, and the absorbance is then read at 570 nm.
(§9) Results are presented as the average percentage of control ± SD for each set of duplicate wells using the following equation: Percent Viability = (ABSTEST - ABS5%DMSO/ / ABSUNTREATED -ABS5%DMSO)*100. A 1% DMSO 'vehicle' control is also included to monitor the effect of DMSO on the cells (all pure compounds are diluted in 10 % DMSO, so final assay concentration is 1%).

For the next data set, the system named is HeLa. Nature of the data set: Cytotoxicity assay (MTT). Format: cell-based. The note with it: 24 hours, read-out: CytoTox HeLa (CC50). How it is done: as §6, §7, §8, §9
Another data set has as its system HepG2. Nature of the data set: Cytotoxicity assay (MTT). Format: cell-based. The settings on record: 24 hours, read-out: CytoTox HepG2 (CC50). How it is done: as §6, §7, §8, §9
The next data set concerns K-562. Type of data set: cell-based. How it is done:
as §6, §7, §8, §9

A further data set deals with HUVEC. Format: cell-based. How it is done:
as §6, §7, §8, §9

A further data set can be described thus: Stability in plasma (M). The settings on record: second value of the cell.
The nature of the next data set: Stability in plasma (H). The settings on record: first value of the cell.
For another data set, the system named is M tb MDR (BACTEC). The experiment in a line: microbe, parasite or virus in culture. The settings on record: for MIC: Mycobacterium tuberculosis. Format: cell-based, M. tuberculosis.
A further data set has as its system M. tuberculosis H37Rv. The experiment in a line: BTZ efficacy in the acute animal model (mouse infection). Type of data set: in vivo. The note with it: BALB/c mice, 5 x 10^6 CFU, gavage 37.5 or 300 mg per kg, once daily, 5 times/week, four weeks. How it is done:
BTZ efficacy in vivo can be determined in a standard mouse infection model according to e.g. the following protocol. BALB/c mice are infected with M. tuberculosis H37Rv at a bacillary load of 5 x 10^6 CFU by injection into the eye venous sinus, 10 BALB/c mice per group. The first day of the treatment is day 8 after the infection. Mice are dosed by gavage with 37.5, or 300 mg of BTZ, per kg body weight, in carboxymethyl cellulose formulation (0.25%), once daily, 5 times/week, for four weeks. Negative control mice died 25-28 days after infection.

The nature of a further data set: physchem. The settings on record: 20 °C, pH 7.4, aqueous buffer, kinetic from dmso stock.
The next data set can be described thus: Cytotoxicity assay (MTT). Type of data set: cell-based. The note with it: human. As for the experimental part: as §6, §7, §8, §9
Setting [2] is: 5G987, read-out: MIC M smeg 5G987.

SMILES strings stand for the structures. Converted amounts (≈) assume the structure as drawn. “And” between values parts separate entries of the source, which are not always exact repeats. Equal values may be shown once. Read-outs that look alike come from different tables or passages of the source.

With `O=c1nc(N2CCN(Cc3ccccc3)CC2)sc2c([N+](=O)[O-])cc(C(F)(F)F)cc12` [Cpd 7 of WO 2009/010163, reference compound], the MIC with M fort B was determined as 0.05 µg/mL (≈ 0.111 µM); in the data set on M smeg 5G987 (setting [2]), 0.05 µg/mL.
Regarding `NNC(=O)c1ccncc1` [isoniazid], the “MIC of the existing TB drugs” value in the data set on mycobacteria was 0.02 to 0.2 µg/mL.
With `CC1COC2(CCN(c3nc(=O)c4cc(C(F)(F)F)cc([N+](=O)[O-])c4s3)CC2)O1` (stereo not shown) [Cpd 1 of WO 2007/134625, reference compound], the MIC against M vaccae 10670 is 0.0004 µg/mL (≈ 0.000927 µM); in data set [1] it was 0.008 µg/mL (≈ 0.0185 µM). Besides, the “MIC M fort B” value in the data set with M fort B is 0.00156 µg/mL (≈ 0.00362 µM). For the same compound, the “MIC M aurum SB66” value against M aurum SB66 is listed as over 100 µg/mL. In addition, the “activity against M. aureum strain SB66” value in the data set on M aurum SB66 is on record as “neither compound A nor the Reference compound I are active”. In addition, the CC50 with HEK293 was over 100 µM; in the data set with HeLa, over 50 µM; in the data set on HepG2 it was over 100 µM. Also, the “CytoTox K-562 (GC50)” value in the data set with K-562 amounted to 11 µM. In addition, in the data set on HUVEC, the “CytoTox HUVEC (GC50)” value is 8 µM. In addition, the results for the “Stability Plasma (H/M)” value in “Stability in plasma (M)” and in “Stability in plasma (H)” were 97% and 107%, respectively. Also, in the data set on M smeg 5G987, the “MIC M smeg 5G987” value stood at 0.00312 µg/mL (≈ 0.00723 µM). In addition, the “MIC M tb MDR (BACTEC)” value in the data set on M tb MDR (BACTEC) is reported as at most 0.015 µg/mL.
As to `CC[C@@H](CO)NCCN[C@@H](CC)CO` [ethambutol], in the data set with mycobacteria, the “MIC of the existing TB drugs” value is 1 to 5 µg/mL.
Take `CN(C(=O)CN1CCN(c2nc(=O)c3cc(C(F)(F)F)cc([N+](=O)[O-])c3s2)CC1)c1ccccc1` [Compound A]: the MIC with M vaccae 10670 was 0.00312 µg/mL (≈ 0.00615 µM); in the data set on M fort B, 0.0125 µg/mL (≈ 0.0246 µM); in the data set on M aurum SB66 it was over 100 µg/mL; in data set [1] it was 0.015 µg/mL (≈ 0.0296 µM); in the data set on M smeg 5G987 (5G987, molar value in brackets, strain not named, read-out: MIC against Mycobacterium smegmatis) it was 0.025 µM; with M smeg 5G987 (setting [2]) it was 0.0125 µg/mL. Moreover, the MIC was 0.012 µg/mL in the data set with M smeg 5G987 (5G987, read-out: MIC against Mycobacterium smegmatis); 0.03 µg/mL (≈ 0.0591 µM) with M tb MDR (BACTEC) (read-out: MIC M tb MDR (BACTEC)); 0.03 µg/mL and 0.059 µM with M tb MDR (BACTEC) (read-out: MIC against MDR M. tuberculosis). Moreover, the “activity against M. aureum strain SB66” value in the data set on M aurum SB66 is listed as “neither compound A nor the Reference compound I are active”. Also, the “efficacy, life of the treated mice” value with M. tuberculosis H37Rv was “very effective in this model and significantly prolonged the life of the treated mice”. In the data set “physchem”, the concentration in solution (solubility at 20 h) was 12 µM (≈ 6.09 µg/mL). Besides, the CC50 at 24 h in “Cytotoxicity assay (MTT)” (HEK293 cells, read-out: CytoTox HEK293 (CC50)) is over 100 µM; in the data set “Cytotoxicity assay (MTT)” (HeLa cells, read-out: CytoTox HeLa (CC50)), 39 µM; in “Cytotoxicity assay (MTT)” (HepG2 cells, read-out: CytoTox HepG2 (CC50)), over 100 µM. Moreover, the “CytoTox K-562 (GC50)” value with K-562 (human, 24 h) was determined as 30 µM. In addition, the “CytoTox HUVEC (GC50)” value with HUVEC (human, 24 h) was 18 µM. For the same compound, the entries for the “Stability Plasma (H/M)” value in “Stability in plasma (M)” and in the data set “Stability in plasma (H)” were 115% and 95%, respectively.

For orientation: CC50 means the concentration that lowers cell viability or growth by half. By solubility is commonly meant how much of the substance goes into solution per volume. A lower solubility goes with little dissolved substance.

Source of the values: patent EP2468746A1, “Benzothiazinone compounds and their use as anti-tuberculosis agents” (priority 2010, dated 2012).
